Experimental findings from US11440910B2, “Pesticidally active heterocyclic derivatives with sulfur containing substituents” (SYNGENTA PARTICIPATIONS AG, priority 2017, dated 2022) are described below.

Common to all, as to type: in vivo
In assay [1] the test system is Myzus persicae (Green peach aphid). Briefly: Example B5: Myzus persicae, sunflower leaf discs sprayed. The note with it: foliar, 144 h, application rate 200 ppm, mixed ages, 6 days after infestation. How it is done:
Example B5: Myzus Persicae (Green Peach Aphid)
Sunflower leaf discs were placed onto agar in a 24-well microtiter plate and sprayed with aqueous test solutions prepared from 10′000 ppm DMSO stock solutions. After drying, the leaf discs were infested with an aphid population of mixed ages. The samples were assessed for mortality 6 days after infestation.

Assay [2] deals with Euschistus heros (Neotropical brown stink bug). Briefly: Example B8: Euschistus heros, soybean leaves sprayed. Conditions: 120 h, application rate 200 ppm, N2 nymphs, 5 days after infestation, read-out: effect in at least one of the two categories (mortality or growth inhibition). As for the experimental part:
Example B8: Euschistus Heros (Neotropical Brown Stink Bug)
Soybean leaves on agar in 24-well microtiter plates were sprayed with aqueous test solutions prepared from 10′000 ppm DMSO stock solutions. After drying the leaves were infested with N2 nymphs. The samples were assessed for mortality and growth inhibition in comparison to untreated samples 5 days after infestation.

Assay [3] concerns Euschistus heros. Put plainly: Example B13: comparison against Euschistus heros, soybean plants sprayed. Conditions: 120 h, Concentration 3 ppm, N2 nymphs on 2 week old soybean plants, 5 days after treatment. As for the experimental part: Activity of compound P17 according to the present invention and of compound P15 from WO2016/026848 against Euschistus heros is summarized in Table B13.
2 week old soybean plants were sprayed with diluted aqueous test solutions. Afterwards plants were infested with 10 stink bug nymphs (N2). Soybean seeds were added as additional food source to the test system. 5 days after treatment the samples were assessed for mortality.

The test system of assay [4] is Myzus persicae (Green peach aphid). Put plainly: Example B6: Myzus persicae, roots of pea seedlings in test solution. The note with it: 144 h, test rate 24 ppm, mixed ages, 6 days after placing seedlings into test solutions. How it is done:
Example B6: Myzus Persicae (Green Peach Aphid)
Roots of pea seedlings infested with an aphid population of mixed ages were placed directly into aqueous test solutions prepared from 10′000 DMSO stock solutions. The samples were assessed for mortality 6 days after placing seedlings into test solutions.

In assay [5] the test system is Diabrotica balteata (Corn root worm). Briefly: Example B4: Diabrotica balteata, maize sprouts sprayed. Conditions: 96 h, application rate 200 ppm, L2 larvae, 4 days after infestation, read-out: effect in at least one of the two categories (mortality or growth inhibition). How it is done: Example B4: Diabrotica Balteata (Corn Root Worm)
Maize sprouts placed onto an agar layer in 24-well microtiter plates were treated with aqueous test solutions prepared from 10′000 ppm DMSO stock solutions by spraying. After drying, the plates were infested with L2 larvae (6 to 10 per well). The samples were assessed for mortality and growth inhibition in comparison to untreated samples 4 days after infestation.

Assay [6] concerns Plutella xylostella (Diamond back moth). Briefly: Example B3: Plutella xylostella, artificial diet. Conditions: 120 h, application rate 200 ppm, L2 larvae, 5 days after infestation, read-out: effect in at least one of the two categories (mortality or growth inhibition). As for the experimental part:
Example B3: Plutella Xylostella (Diamond Back Moth)
24-well microtiter plates with artificial diet were treated with aqueous test solutions prepared from 10′000 ppm DMSO stock solutions by pipetting. After drying, the plates were infested with L2 larvae (10 to 15 per well). The samples were assessed for mortality and growth inhibition in comparison to untreated samples 5 days after infestation.

In assay [7] the test system is Bemisia tabaci (Cotton white fly). Put plainly: Example B7: Bemisia tabaci, cotton leaf discs sprayed. The note with it: foliar, 144 h, application rate 200 ppm, adult white flies, 6 days after incubation. As for the experimental part:
Example B7: Bemisia Tabaci (Cotton White Fly)
Cotton leaf discs were placed on agar in 24-well microtiter plates and sprayed with aqueous test solutions prepared from 10′000 ppm DMSO stock solutions. After drying the leaf discs were infested with adult white flies. The samples were checked for mortality 6 days after incubation.

By mortality is commonly meant the percentage killed. Low readings indicate more survivors, high ones fewer survivors.

Where only a bound is given, the exact number is not on record here.

On to `CCS(=O)(=O)c1cc(C(C)(C)C#N)ccc1-c1nc2cc(C(F)(F)F)ncc2n1C` [Compound P17, 2-[3-ethylsulfonyl-4-[3-methyl-6-(trifluoromethyl)imidazo[4,5-c]pyridin-2-yl]phenyl]-2-methyl-propanenitrile], for which the mortality at 200 ppm in assay [1] and in assay [7] was ≥ 80% in each case. In addition, the percent effect (mortality or growth inhibition) at 200 ppm in assay [2], in assay [5] and in assay [6] was ≥ 80% each time. In assay [3], the mortality at 3 ppm was determined as 95%. Also, the mortality at 24 ppm in assay [4] was ≥ 80%.
